# Results: US20100261751A1, “METHOD FOR D[…] OF THE TWO HUMAN IMMUNODEFICIENCY VIRUS (HIV) INTEGRASE ENZYMATIC […]” (priority 2007, published 2010)
# Biological target: T1, HIV integrase (Human immunodeficiency virus type 1 group M subtype B, UniProt P04585)
# T1 construct: stored proteins (integrase, wt, 49 μM in)
# Experiment: 3dQ assay: HIV integrase 3′-end processing fluorescence in vitro assay
# Assay type: biochemical
# Conditions: dose response, FIG. 1
# T1 sequence (O75475 whole entry, other chains not shown): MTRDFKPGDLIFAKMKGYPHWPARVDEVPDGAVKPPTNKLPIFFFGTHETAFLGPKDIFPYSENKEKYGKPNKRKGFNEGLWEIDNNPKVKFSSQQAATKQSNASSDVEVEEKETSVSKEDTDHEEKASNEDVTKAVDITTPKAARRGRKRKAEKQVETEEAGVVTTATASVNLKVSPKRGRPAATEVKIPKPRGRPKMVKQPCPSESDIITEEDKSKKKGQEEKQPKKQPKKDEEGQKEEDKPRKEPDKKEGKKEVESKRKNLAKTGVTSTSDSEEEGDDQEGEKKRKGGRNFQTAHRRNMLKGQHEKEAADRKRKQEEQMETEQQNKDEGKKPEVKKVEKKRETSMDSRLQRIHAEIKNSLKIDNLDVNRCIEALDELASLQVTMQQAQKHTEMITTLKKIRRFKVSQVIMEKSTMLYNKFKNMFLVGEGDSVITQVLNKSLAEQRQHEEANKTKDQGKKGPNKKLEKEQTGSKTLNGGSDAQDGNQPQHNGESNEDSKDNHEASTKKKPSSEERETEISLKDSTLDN
compound,measurement,value
"O=C(O)C(=O)CC(=O)c1cccn1Cc1ccc(F)cc1 [L731,988]",inhibition of 3′-end processing (result in words),only showed a weak response
